Measured values published in patent US4122184A, “Benzimidazole insecticides” (priority 1977, dated 1978).
Where “and” joins values, the source holds several entries; their conditions need not be identical. Equal values may be shown once.

Assays:
[1] = test system: Striped Cucumber Beetle Adults; experiment: Field trial, stomach poison test; type: in vivo; set-up: key: mortality rating on a 0 to 9 scale
Outline: (§1)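 Leaves from infested plants sprayed (10 psi) or dipped in test compound at several concentrations, air-dried, then five or ten insects placed per dish, one or two replicates. Mortality scored 0 to 9 at 24, 48 and 72 h, averaged per concentration.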

Alfalfa Weevil Larvae [2] = experiment: Field trial, topical application; type: in vivo
Description: The results are read at 24, 48, and 72 hours when applicable. The rating scale is 0 to 9 where 0 = 0-10 percent and 9 = 91-100 percent mortality.
(§2) In a variation of the above test, 1 microliter of a test solution containing a predetermined number of micrograms of benzimidazole was applied directly to larvae or adult insects.
Using the above methods, field trials were carried out against species of 5 orders of insects. The results, which are summarized in the following tables, give the average mortality for the particular insect with a given benzimidazole for each concentration employed. […] These tables contain all results obtained during the summer trials.

Oriental Cockroach = experiment: Oriental Roach Test; type: in vivo, Blatta orientalis (Orthoptera); details: 24 h
Description: A rearing pan of late instar (3-4 months old) roaches is placed in a cold room for about 1 hour. Ten nymphs are taken from the pan and placed in each cage and the caged insects are kept at 70°-80° F. for 1 hour. The test cages are then sprayed in the manner indicated above in the milkweed bug test using 5 ml. of a formulation containing a specified amount of the insecticide. The test cages are held for 72 hours during which time the cockroaches are neither fed nor watered. Controls consist of 2 unsprayed cages, two cages sprayed with the formulation alone and 2 cages with a formulation containing 1000 ppm of heptachlor. Mortality counts are made 24 hours after spraying by shaking the cages lightly. All cockroaches remaining in the bottom are counted as dead.

Bean Leaf Beetle = experiment: Field trial, contact poison test; type: in vivo
Outline: (§3)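 Each infested plant sits in a water-filled bottle to prevent wilting, and the test compound is then atomized onto it at 10 psi at various concentrations. Falling dead insects are collected, and mortality is rated 0 (0-10%) to 9 (91-100%) at up to 72 h.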

[3] = test system: Red-Legged Grasshopper Adults; experiment: Field trial, contact poison test; type: in vivo
Outline: as §3

Boll Weevil = Boll Weevil Test; type: in vivo, Anthonomus grandis (Coleoptera); details: 48 h
Source text: The procedure is identical to that employed for the Mexican bean beetle and the Southern armyworm, except that 10 adult boll weevils are placed on cotton leaves that have been dipped into formulations of the test compounds. The same rating scale is used.

Aphids - Apple = experiment: Field trial, stomach poison test; type: in vivo
Outline: as §1

[4] = test system: Potato Flea Beetle Adults; experiment: Field trial, stomach poison test; type: in vivo
Outline: as §1

Alfalfa Weevil Larvae [5] = experiment: Field trial, stomach poison test; type: in vivo
Outline: as §1

Meadow Spittlebug = experiment: Field trial, stomach poison test; type: in vivo
Outline: as §1

Aphids - Tulip Tree = experiment: Field trial, stomach poison test; type: in vivo
Outline: as §1

[6] = test system: Southern Corn Rootworm Adults; experiment: Field trial, stomach poison test; type: in vivo; set-up: key: mortality rating on a 0 to 9 scale
Outline: as §1

Two-spotted Spider Mite = Two-spotted Spider Mite test; type: in vivo, Tetranychus urticae (Acarina); details: 48 h
Description: The procedure in this test is the same as that in the previous aphid test, except that about 100 two-spotted spider mites from a stock colony raised on squash plants are transferred to a cut squash cotyledon. The mortality is estimated 48 hours after spraying. The same rating scale is used.

[7] = test system: Southern Corn Rootworm Adults; experiment: Field trial, contact poison test; type: in vivo
Outline: as §3

Aphids - Sour Gum = experiment: Field trial, stomach poison test; type: in vivo
Outline: as §1

Picnic Beetle = experiment: Field trial (first summer), topical; type: in vivo; details: .078125 μg/μl
Description: as §2
During the previous summer similar field trials were conducted employing the same tests as heretofore but with some additional species of insects not included in the later tests. The results listed below are for tests in which an insect mortality was established by a given application route and at a given concentration in a particular test. The same 0 - 9 scoring system is used as is the designation of compounds by alphabetical symbols.

Asparagus Beetles Adults = experiment: Field trial, stomach poison test; type: in vivo
Outline: as §1

In the case of `CC(C)OC(=O)n1c(C(F)(F)F)nc2c([N+](=O)[O-])cc(C(F)(F)F)cc21` [I, isopropyl 2,6-bis(trifluoromethyl)-4-nitro-1-benzimidazolecarboxylate], the average mortality rating ([1]; 10 ppm) is reported as 2, the average mortality rating ([1]; 25 ppm) is reported as 3 and the average mortality rating ([1]; 50 ppm) is reported as 6. For the same compound, the average mortality rating ([1]; 100 ppm) was 9 (91-100 percent mortality), the average mortality rating (Alfalfa Weevil Larvae [2]; 0.03 μg/μl) was 1 and the average mortality rating (Alfalfa Weevil Larvae [2]; 0.07 μg/μl) was 1. It also gave an average mortality rating (Alfalfa Weevil Larvae [2]; 0.1 μg/μl) of 3, a mortality rating (Oriental Cockroach; 100 ppm) of 1.5 and a mortality rating (Oriental Cockroach; 250 ppm) of 5.5. For the same compound, the mortality rating (Oriental Cockroach; 500 ppm) was 6.5, the average mortality rating (Bean Leaf Beetle; 25 ppm) was 0 (0-10 percent) and the average mortality rating (Bean Leaf Beetle; 50 ppm) was 0 (0-10 percent). The average mortality rating (Bean Leaf Beetle; 100 ppm) was 4, the average mortality rating ([3]; 10 ppm) was 2 and the average mortality rating ([3]; 25 ppm) was 3. For the same compound, the average mortality rating ([3]; 50 ppm) was 5, the mortality rating (Boll Weevil; 25 ppm) was 8.5 and the mortality rating (Boll Weevil; 50 ppm) was 8.5. It also gave a mortality rating (Boll Weevil; 100 ppm) of 7.5, an average mortality rating (Aphids - Apple; 25 ppm) of 1 and an average mortality rating (Aphids - Apple; 50 ppm) of 5. The average mortality rating (Aphids - Apple; 100 ppm) was 9 (91-100 percent mortality), the average mortality rating ([4]; 10 ppm) was 6 and the average mortality rating ([4]; 25 ppm) was 8. The average mortality rating ([4]; 50 ppm) was 8, the average mortality rating ([4]; 100 ppm) was 9 (91-100 percent mortality) and the average mortality rating (Alfalfa Weevil Larvae [5]; 125 ppm) was 8. For the same compound, the average mortality rating (Alfalfa Weevil Larvae [5]; 250 ppm) was 4, the average mortality rating (Alfalfa Weevil Larvae [5]; 500 ppm) was 6 and the average mortality rating (Meadow Spittlebug; 10 ppm) was 2. It also gave an average mortality rating (Meadow Spittlebug; 25 ppm) of 5, an average mortality rating (Meadow Spittlebug; 50 ppm) of 3 and an average mortality rating (Aphids - Tulip Tree; 25 ppm) of 5. It also gave an average mortality rating (Aphids - Tulip Tree; 50 ppm) of 5 and an average mortality rating (Aphids - Tulip Tree; 100 ppm) of 5.
For `O=[N+]([O-])c1cc(C(F)(F)F)cc2[nH]c(C(F)(F)Cl)nc12` [L, 2-chlorodifluoromethyl-4-nitro-6-trifluoromethylbenzimidazole], the average mortality rating ([6]; 25 ppm) was 1, the average mortality rating ([6]; 50 ppm) was 4 and the average mortality rating ([6]; 100 ppm) was 6. The mortality rating (Two-spotted Spider Mite; 5 ppm) was 7.5, the mortality rating (Oriental Cockroach; 500 ppm) was 5.5 and the average mortality rating ([7]; 25 ppm) was 5. The average mortality rating ([7]; 50 ppm) was 8, the average mortality rating ([7]; 100 ppm) was 9 (91-100 percent mortality) and the average mortality rating (Bean Leaf Beetle; 25 ppm) was 0 (0-10 percent). For the same compound, the average mortality rating (Bean Leaf Beetle; 50 ppm) was 4, the average mortality rating (Bean Leaf Beetle; 100 ppm) was 6 and the average mortality rating ([3]; 25 ppm) was 7. The average mortality rating ([3]; 50 ppm) was 9 (91-100 percent mortality), the mortality rating (Boll Weevil; 10 ppm) was “.5” and the mortality rating (Boll Weevil; 25 ppm) was 1.5. It also gave an average mortality rating (Aphids - Apple; 25 ppm) of 1, an average mortality rating (Aphids - Apple; 50 ppm) of 1 and an average mortality rating (Aphids - Apple; 100 ppm) of 4. For the same compound, the average mortality rating (Meadow Spittlebug; 25 ppm) was 0 (0-10 percent), the average mortality rating (Meadow Spittlebug; 50 ppm) was 1 and the average mortality rating (Meadow Spittlebug; 100 ppm) was 5. The average mortality rating (Aphids - Sour Gum; 25 ppm) was 7, the average mortality rating (Aphids - Sour Gum; 50 ppm) was 7 and the average mortality rating (Aphids - Sour Gum; 100 ppm) was 9 (91-100 percent mortality). The average mortality rating (Aphids - Tulip Tree; 25 ppm) was 1, the average mortality rating (Aphids - Tulip Tree; 50 ppm) was 1 and the average mortality rating (Aphids - Tulip Tree; 100 ppm) was 5.
With “mixture of N,N-dimethyl-4-nitro-2,6-bis(trifluoromethyl)thio-1-benzimidazolecarboxamide and N,N-dimethyl-7-nitro-2,5-bis(trifluoromethyl)thio-1-benzimidazolecarboxamide [P]” the average mortality rating ([1]; 10 ppm) was 5, the average mortality rating ([1]; 25 ppm) was 4 and the average mortality rating ([1]; 50 ppm) was 5. For the same compound, the average mortality rating ([1]; 100 ppm) was 9 (91-100 percent mortality), the insect mortality rating (Picnic Beetle) was 9 (91-100 percent mortality) and the mortality rating (Two-spotted Spider Mite; 1 ppm) was 3 (31-40). The mortality rating (Two-spotted Spider Mite; 5 ppm) was 4 (41-50), the mortality rating (Two-spotted Spider Mite; 10 ppm) was 4 (41-50) and the mortality rating (Two-spotted Spider Mite; 25 ppm) was 6 (61-70). For the same compound, the mortality rating (Two-spotted Spider Mite; 50 ppm) was 7.0, the mortality rating (Two-spotted Spider Mite; 100 ppm) was 7.5 and the mortality rating (Two-spotted Spider Mite; 250 ppm) was 8.5. For the same compound, the mortality rating (Two-spotted Spider Mite; 500 ppm) was 9 (91-100), the mortality rating (Two-spotted Spider Mite; 1000 ppm) was 9 (91-100) and the mortality rating (Oriental Cockroach; 50 ppm) was 0 (0-10). For the same compound, the mortality rating (Oriental Cockroach; 100 ppm) was 2.5, the mortality rating (Oriental Cockroach; 250 ppm) was 5.5 and the mortality rating (Oriental Cockroach; 500 ppm) was 9 (91-100). For the same compound, the mortality rating (Oriental Cockroach; 1000 ppm) was 8 (81-90), the mortality rating (Boll Weevil; 10 ppm) was 1.5 and the mortality rating (Boll Weevil; 25 ppm) was 5 (51-60). The mortality rating (Boll Weevil; 50 ppm) was 8 (81-90), the mortality rating (Boll Weevil; 100 ppm) was 9 (91-100) and the mortality rating (Boll Weevil; 250 ppm) was 9 (91-100). For the same compound, the mortality rating (Boll Weevil; 500 ppm) was 9 (91-100) and the mortality rating (Boll Weevil; 1000 ppm) was 9 (91-100).
With “mixture of methyl 2,6-bis(trifluoromethyl)-4-nitro-1-benzimidazolecarboxylate and methyl 2,5-bis(trifluoromethyl)-7-nitro-1-benzimidazolecarboxylate” the average mortality rating ([6]; 25 ppm) was 3 and 4, the average mortality rating ([6]; 50 ppm) was 4 and the average mortality rating ([6]; 100 ppm) was 6. For the same compound, the average mortality rating ([1]; 10 ppm) was 2, the average mortality rating ([1]; 25 ppm) was 0 (0-10 percent) and the average mortality rating ([1]; 50 ppm) was 5. For the same compound, the average mortality rating ([1]; 100 ppm) was 9 (91-100 percent mortality), the insect mortality rating (Picnic Beetle) was 9 (91-100 percent mortality) and the mortality rating (Two-spotted Spider Mite; 10 ppm) was 3 (31-40). The mortality rating (Two-spotted Spider Mite; 25 ppm) was 4 (41-50), the mortality rating (Two-spotted Spider Mite; 50 ppm) was 9 (91-100) and the mortality rating (Two-spotted Spider Mite; 100 ppm) was 6 (61-70). For the same compound, the mortality rating (Two-spotted Spider Mite; 250 ppm) was 9 (91-100), the mortality rating (Two-spotted Spider Mite; 500 ppm) was 9 (91-100) and the mortality rating (Two-spotted Spider Mite; 1000 ppm) was 9 (91-100). For the same compound, the average mortality rating (Alfalfa Weevil Larvae [2]; 0.03 μg/μl) was 2, the average mortality rating (Alfalfa Weevil Larvae [2]; 0.07 μg/μl) was 1 and the average mortality rating (Alfalfa Weevil Larvae [2]; 0.1 μg/μl) was 4. For the same compound, the mortality rating (Oriental Cockroach; 50 ppm) was 0 (0-10), the mortality rating (Oriental Cockroach; 100 ppm) was 0 (0-10) and the mortality rating (Oriental Cockroach; 250 ppm) was 5.5. For the same compound, the mortality rating (Oriental Cockroach; 500 ppm) was 9 (91-100), the mortality rating (Oriental Cockroach; 1000 ppm) was 9 (91-100) and the average mortality rating ([7]; 25 ppm) was 5 and 3. For the same compound, the average mortality rating ([7]; 100 ppm) was 9 (91-100 percent mortality), the average mortality rating (Bean Leaf Beetle; 25 ppm) was 0 (0-10 percent) and the average mortality rating (Bean Leaf Beetle; 50 ppm) was 0 (0-10 percent). The average mortality rating (Bean Leaf Beetle; 100 ppm) was 1, the mortality rating (Boll Weevil; 5 ppm) was 0 (0-10) and the mortality rating (Boll Weevil; 10 ppm) was 5.5. For the same compound, the mortality rating (Boll Weevil; 25 ppm) was 8.5, the mortality rating (Boll Weevil; 50 ppm) was 9 (91-100) and the mortality rating (Boll Weevil; 100 ppm) was 9 (91-100). For the same compound, the mortality rating (Boll Weevil; 250 ppm) was 9 (91-100), the mortality rating (Boll Weevil; 500 ppm) was 9 (91-100) and the mortality rating (Boll Weevil; 1000 ppm) was 9 (91-100). For the same compound, the average mortality rating (Alfalfa Weevil Larvae [5]; 125 ppm) was 7, the average mortality rating (Alfalfa Weevil Larvae [5]; 250 ppm) was 6 and the average mortality rating (Alfalfa Weevil Larvae [5]; 500 ppm) was 3. The average mortality rating (Asparagus Beetles Adults; 5 ppm) was 5, the average mortality rating (Asparagus Beetles Adults; 10 ppm) was 5 and the average mortality rating (Asparagus Beetles Adults; 25 ppm) was 9 (91-100 percent mortality). The average mortality rating (Meadow Spittlebug; 100 ppm) was 5.
